Measured values from patent publication US20150164884A1, “HCV COMBINATION THERAPY” (Boehringer Ingelheim International GmbH, priority 2009, published 2015).
Converted amounts (≈) assume the structure as drawn. Where a name gives a salt, the structure may show the parent alone. Read-outs that look alike come from different tables or passages of the source.

What was measured:
[1] = Form change (stability) study of slurried solids by XRPD; type: physicochemical; details: slurried in either ethanol or propylene glycol
Procedure: (§1) The solubility of Compound (1), as either Type A or the sodium salt form, was investigated in various non-aqueous solvents. The solutions were prepared by addition of excess Compound (1) to 0.25 ml to 1.0 ml of excipient in amber screw cap vials with Teflon lined caps. The samples were allowed to rotate at room temperature for up to 4 days. Sampling was done by centrifuging (14,000 rpm on the Eppendorf model 5415C table top centrifuge) and filtering through a 0.45 μm PVDF filter. The filtrate was subject to HPLC analysis for determining the solubility. HPLC analysis was conducted with an to Agilent 1100 using gradient or isocratic conditions. Both methods used acetonitrile/water (each with 0.1% Triflouroacetic Acid) and an ACE C-18 stationary phase with column heating maintained at 40-45° C. The wavelength of detection was set at 220 nm or 264 nm Wet solids were collected and analyzed for form change (stability) by XRPD.
XRPD analyses for the form change studies were conducted on a Bruker AXS X-Ray Powder Diffractometer Model D8 Discover or D8 Advance, available from Bruker AXS, Inc. of Madison, Wis., using CuKα radiation. The tube power was set to either 40 kV and 40 mA or 40 kV and 30 mA. […]

[2] = Solubility of Compound (1) forms in non-aqueous excipients (HPLC of filtrate); type: physicochemical; details: room temperature, up to 4 days
Procedure: as §1

SMILES | Form stability (change in XRPD pattern of remaining solid phase) ([1]; listed as Type A form of Compound (1)) | Solubility ([2]; excipient Capmul MCM) [mg/mL] | Solubility ([2]; excipient Capmul PG8) [mg/mL] | Solubility ([2]; excipient Ethanol) [mg/mL] | Solubility ([2]; excipient Labrasol) [mg/mL] | Solubility ([2]; excipient PEG 400) [mg/mL] | Solubility ([2]; excipient Transcutol P) [mg/mL] | Form stability (change in XRPD pattern of remaining solid phase) ([1]; listed as crystalline sodium salt form of Compound (1)) | Solubility ([2]; Capmul MCM (non-aqueous excipient), oil or lipid, thermodynamic from solid, excipient Capmul MCM, read-out: Solubility) [mg/mL] | Solubility ([2]; Capmul PG8 (non-aqueous excipient), oil or lipid, thermodynamic from solid, excipient Capmul PG8, read-out: Solubility) [mg/mL] | Solubility ([2]; Labrasol (non-aqueous excipient), oil or lipid, thermodynamic from solid, excipient Labrasol, read-out: Solubility) [mg/mL] | Solubility ([2]; PEG 400 (non-aqueous excipient), organic solvent or mixture, thermodynamic from solid, excipient PEG 400, read-out: Solubility) [mg/mL] | Solubility ([2]; propylene glycol (non-aqueous excipient), organic solvent or mixture, thermodynamic from solid, excipient Propylene Glycol, read-out: Solubility) [mg/mL]
C=C[C@@H]1C[C@]1(NC(=O)[C@@H]1C[C@H](Oc2cc(-c3csc(NC(=O)C(C)C)n3)nc3c(Br)c(OC)ccc23)CN1C(=O)[C@@H](NC(=O)OC1CCCC1)C(C)(C)C)C(=O)O [Type A of Compound (1)] | clear form change | 220.6 ± 7.4 (≈ 254 mM) | 172.6 ± 8.3 (≈ 198 mM) | 0.9 ± 0.1 (≈ 1.03 mM) | 146.7 ± 5.1 (≈ 169 mM) | 136.8 ± 3.2 (≈ 157 mM) | 24.3 ± 0.3 (≈ 27.9 mM) | – | – | – | – | – | –
C=C[C@@H]1C[C@]1(NC(=O)[C@@H]1C[C@H](Oc2cc(-c3csc(NC(=O)C(C)C)n3)nc3c(Br)c(OC)ccc23)CN1C(=O)[C@@H](NC(=O)OC1CCCC1)C(C)(C)C)C(=O)O [Compound (1) Na salt] | – | – | – | 187.0 ± 23.9 | – | – | 430.6 ± 14.7 | no change in the XRPD pattern | 262.5 ± 2.6 | < 169 | 175 ± 11.8 | 234 ± 34 | > 468
